From PubChem BioAssay (NCI)
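Briefly, cells in 96-well plates were exposed to five compound concentrations for 48 h, and endpoints were estimated by linear interpolation. GI50 = concentration required for 50% inhibition of growth. The concentration for full growth arrest is given as TGI.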

What was measured:
Assay in all cases: NCI-60 cell line screen, 48 h
OVCAR-8 ovarian = system: OVCAR-8 ovarian
UO-31 renal = system: UO-31 renal
NCI-H23 lung = system: NCI-H23 lung
A498 renal = system: A498 renal
HT29 colon = system: HT29 colon
CAKI-1 renal = system: CAKI-1 renal
HOP-62 NSCLC = system: HOP-62 NSCLC
SN12C renal = system: SN12C renal
MOLT-4 leukemia = system: MOLT-4 leukemia
MCF7 breast = system: MCF7 breast

Compound	TGI (OVCAR-8 ovarian) [µM]	TGI (UO-31 renal) [µM]	TGI (NCI-H23 lung) [µM]	TGI (A498 renal) [µM]	TGI (HT29 colon) [µM]	TGI (CAKI-1 renal) [µM]	TGI (HOP-62 NSCLC) [µM]	TGI (SN12C renal) [µM]	TGI (MOLT-4 leukemia) [µM]	TGI (MCF7 breast) [µM]	GI50 (OVCAR-8 ovarian) [µM]	GI50 (UO-31 renal) [µM]	GI50 (NCI-H23 lung) [µM]	GI50 (A498 renal) [µM]	GI50 (HT29 colon) [µM]	GI50 (CAKI-1 renal) [µM]	GI50 (HOP-62 NSCLC) [µM]	GI50 (SN12C renal) [µM]	GI50 (MOLT-4 leukemia) [µM]	GI50 (MCF7 breast) [µM]
CCn1c2ccccc2c2ccc(C3C(C(=O)OC)=C(C)NC(C)=C3C(=O)OC)cc21	> 100	> 100	> 100	46	> 100	> 100	> 100	> 100	> 100	> 100										
COc1ccc(/C=C\c2cc(OC)c(OC)c(OC)c2)cc1OCC(=O)Nc1ccc2nc(C)sc2c1	5.41	7.5	7.95	> 100	> 100	5.85	8.85	> 100	5.68	12.9	2.12	2.41	2.53	4.18	3.31	2.19	3.09	3.53	2.11	0.748
COc1cc(C2C3=C(COC3=O)N(CCO)c3cc4c(cc32)OCO4)cc(OC)c1O (stereo unspecified)	> 50	> 37.2	> 38	3.92	5.32	> 41	> 50	> 50	> 24.9	> 50	3.17	2.02	1.84	1.16	1.38	5.4	2.35	> 12.1	2.15	1.19
COc1cccc(/C(C)=N/NC(=O)CSc2nc3ccccc3c(=O)n2CCc2ccc(S(N)(=O)=O)cc2)c1	4.88	6.48	8.47	24.8	5.31	15.4	9.63	19.5	40.2	15.4	2.32	2.11	2.86	8.02	2.36	3.7	2.81	4.52	6.5	3.14
CCS(=O)(=O)c1ccc(OC)c(Nc2ncc(-c3ccccc3Cl)o2)c1	> 25	> 25	> 25	12.1	> 20.5	> 25	> 25	> 25	> 25	> 25	9.9	6.37	7.89	3.17	8.01	24.3	10.1	14.9	14.1	8.27
Cc1cc(O)c(/C=N/C(=S)Nc2ccccc2)c(=O)o1	> 100	> 100	> 100	> 100	> 100	> 100	> 100	> 100	> 100	> 100										
COc1ccc(C2C=C(c3ccc(Cl)cc3)N=C3SC=C(C)N32)c(Br)c1 (stereo unspecified)	50.7	15.4	28.4	16.2	12.7	12.4	13.4	15.1	> 100	12.5	3.32	3.26	4.43	4.18	3.62	2.98	3.96	3.23	4.12	2.32
Cc1cccc(NC(=O)/C=C/c2ccc([N+](=O)[O-])cc2)c1	> 53.7	> 50.4	31.7	> 100	> 70.3	> 54.4	33.4	> 58.2	> 65.4	> 43.9										
Cc1ccc(NC(=O)/C(=N/N(C)C)C(C2OC(=O)c3ccccc32)[N+](=O)[O-])cc1 (stereo unspecified)	> 100	> 100	> 100	> 100	> 100	> 100	> 100	> 100	> 100	> 100										
Cc1ccc(-c2nc([P+](c3ccccc3)(c3ccccc3)c3ccccc3)c(Nc3ccccc3)o2)cc1	3.27	1.73	1.28	2.46	1.45	2.34		1.84	2.06	1.43	1.05	0.421	0.344	1.12	0.344	1.08		0.541	0.477	0.346
O=C(CC(=O)c1cccc(Cl)c1)c1cccc(Cl)c1	> 100	> 100	> 100	> 100		6.65	> 100	> 100	> 100	> 100	2.6	3.98	1.91	5.07		1.61	2.59	2.38	2.08	1.72
